Test results: ChEMBL document CHEMBL2375323, “Cu(OTf)2 catalyzed three component reaction: efficient synthesis of spiro[indoline-3,4'-pyrano[3,2-b]pyran derivatives and their anticancer potency towards A549 human lung cancer cell lines” (Bioorg Med Chem Lett, 2013)

tested on: A549; experiment: Cytotoxicity against human A549 cells assessed as growth inhibition by MTT assay; type: functional, cell-based

| Structure (SMILES) | IC50 |
| --- | --- |
| N#CC1=C(N)Oc2c(oc(CO)cc2=O)C12C(=O)Nc1ccc(Br)cc12 (centres undefined) | > 200 µM |
| COC(=O)C1=C(N)Oc2c(oc(CO)cc2=O)C12C(=O)Nc1ccccc12 (centres undefined) | 56.2 µM |
| CCOC(=O)C1=C(N)Oc2c(oc(CO)cc2=O)C12C(=O)N(C)c1ccccc12 (centres undefined) | 55.8 µM |
| CCOC(=O)C1=C(N)Oc2c(oc(CO)cc2=O)C12C(=O)Nc1ccc(C)cc12 (centres undefined) | 52.9 µM |
| COC(=O)C1=C(N)Oc2c(oc(CO)cc2=O)C12C(=O)Nc1ccc(C)cc12 (centres undefined) | 62.8 µM |
| COC(=O)C1=C(N)Oc2c(oc(CO)cc2=O)C12C(=O)N(Cc1ccccc1)c1ccccc12 (centres undefined) | 55.1 µM |
| N#CC1=C(N)Oc2c(oc(CO)cc2=O)C12C(=O)N(Cc1ccccc1)c1ccccc12 (centres undefined) | > 200 µM |
| C=CCN1C(=O)C2(C(C(=O)OCC)=C(N)Oc3c2oc(CO)cc3=O)c2ccccc21 (centres undefined) | 54.6 µM |
| C#CCN1C(=O)C2(C(C#N)=C(N)Oc3c2oc(CO)cc3=O)c2ccccc21 (centres undefined) | > 200 µM |
| COC(=O)C1=C(N)Oc2c(oc(CO)cc2=O)C12C(=O)Nc1ccc([N+](=O)[O-])cc12 (centres undefined) | 55.9 µM |
| N#CC1=C(N)Oc2c(oc(CO)cc2=O)C12C(=O)Nc1ccc(Cl)cc12 (centres undefined) | 51.4 µM |
| N#CC1=C(N)Oc2c(oc(CO)cc2=O)C12C(=O)Nc1ccccc12 (centres undefined) | 52.8 µM |
| CCOC(=O)C1=C(N)Oc2c(oc(CO)cc2=O)C12C(=O)Nc1ccc(Br)cc12 (centres undefined) | 52.8 µM |
| C=CCN1C(=O)C2(C(C#N)=C(N)Oc3c2oc(CO)cc3=O)c2ccccc21 (centres undefined) | 59.4 µM |
| N#CC1=C(N)Oc2c(oc(CO)cc2=O)C12C(=O)Nc1ccc(F)cc12 (centres undefined) | > 200 µM |
| CCOC(=O)C1=C(N)Oc2c(oc(CO)cc2=O)C12C(=O)Nc1ccc(F)cc12 (centres undefined) | > 200 µM |
| CN1C(=O)C2(C(C#N)=C(N)Oc3c2oc(CO)cc3=O)c2ccccc21 (centres undefined) | 51.1 µM |
| CCOC(=O)C1=C(N)Oc2c(oc(CO)cc2=O)C12C(=O)Nc1ccccc12 (centres undefined) | > 200 µM |
| CCOC(=O)C1=C(N)Oc2c(oc(CO)cc2=O)C12C(=O)Nc1ccc(Cl)cc12 (centres undefined) | 53.1 µM |
